Reference: patent publication US7473790B2 (Pfizer Inc., priority 2003, dated 2009)

Target: T1, HCV polymerase (Hepatitis C virus genotype 1b, UniProt P26663)
T1 construct: 2.5 pmoles (0.15 μg) HCV polymerase protein in a final volume of 75 μL
Assay: HCV polymerase primer/template-directed transcription assay (32P-GTP incorporation, filter binding)
Type: biochemical
Conditions: recombinant HCV polymerase; 30 minutes at 30° C.; concentration giving 50% inhibition of polymerase-directed transcription; read-out: IC50
Outline: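 IC50s come from triplicate cpm, refit with an enzyme-concentration (30 nM) correction when under 200 nM. Reactions ran 30 min at 30° C in Tris pH 7.2 with MgCl2, 1 μM GTP spiked with α-32P-GTP, biotin-dG12 primer and poly(rC)300 template, with 1% DMSO. Incorporated label was collected on DE filtermats and counted.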

T1 sequence (P26663 2420-3010): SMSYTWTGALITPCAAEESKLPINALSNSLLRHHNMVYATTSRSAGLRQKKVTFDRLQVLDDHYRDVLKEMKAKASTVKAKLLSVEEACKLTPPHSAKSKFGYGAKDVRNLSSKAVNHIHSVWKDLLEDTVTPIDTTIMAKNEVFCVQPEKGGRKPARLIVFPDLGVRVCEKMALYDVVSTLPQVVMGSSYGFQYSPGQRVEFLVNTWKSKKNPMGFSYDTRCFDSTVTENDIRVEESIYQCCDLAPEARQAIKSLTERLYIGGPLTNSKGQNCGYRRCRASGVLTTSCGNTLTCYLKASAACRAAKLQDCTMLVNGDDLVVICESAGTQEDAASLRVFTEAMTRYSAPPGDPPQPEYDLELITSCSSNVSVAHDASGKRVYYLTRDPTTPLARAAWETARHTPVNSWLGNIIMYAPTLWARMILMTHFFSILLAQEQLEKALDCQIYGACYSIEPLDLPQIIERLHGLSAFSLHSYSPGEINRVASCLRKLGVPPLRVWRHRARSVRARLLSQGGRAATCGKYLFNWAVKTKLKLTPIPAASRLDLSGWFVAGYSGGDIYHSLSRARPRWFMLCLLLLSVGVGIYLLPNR

Compound | IC50
CCc1cc(CCC2(C3CCCC3)CC(O)=C(Cc3nc4nc(C)cc(C)n4n3)C(=O)O2)ccc1OCCNC(C)=O (stereo not drawn) [A(139), N-{2-[4-(2-{2-cyclopentyl-5-[(5,7-dimethyl[1,2,4]triazolo[1,5-a]pyrimidin-2-yl)methyl]-4-hydroxy-6-oxo-3,6-dihydro-2H-pyran-2-yl}ethyl)-2-ethylphenoxy]ethyl}acetamide] | 2 nM
CC(C)(C#N)c1c(F)cc(CCC2(C3CCCC3)CC(O)=C(Cc3nc4ncc(Cl)cn4n3)C(=O)O2)cc1F (stereo not drawn) [A(142)] | 4 nM
Cc1cnc2nc(CC3=C(O)CC(CCc4cc(F)c(C(C)(C)C#N)c(F)c4)(C4CCCC4)OC3=O)nn2c1 (stereo not drawn) [A(143), 2-(4-{2-[2-Cyclopentyl-4-hydroxy-5-(6-methyl-[1,2,4]triazolo[1,5-a]pyrimidin-2-ylmethyl)-6-oxo-3,6-dihydro-2H-pyran-2-yl]-ethyl}-2,6-difluoro-phenyl)-2-methyl-propionitrile] | 9 nM
CC(C)(C#N)c1c(F)cc(CCC2(C3CCCC3)CC(O)=C(Cc3nc4ncccn4n3)C(=O)O2)cc1F (stereo not drawn) [A(144), 2-{4-[2-(2-Cyclopentyl-4-hydroxy-6-oxo-5-[1,2,4]triazolo[1,5-a]pyrimidin-2-ylmethyl-3,6-dihydro-2H-pyran-2-yl)-ethyl]-2,6-difluoro-phenyl}-2-methyl-propionitrile] | 11 nM
COC1=CC(=O)OC(CCc2ccc(C(C)(C)C#N)c(F)c2)(C2CCCC2)C1 (stereo not drawn) [A(145), 2-{4-[2-(2-Cyclopentyl-4-methoxy-6-oxo-3,6-dihydro-2H-pyran-2-yl)-ethyl]-2-fluoro-phenyl}-2-methyl-propionitrile] | 3900 nM
Cc1cc(C)n2nc(CC3=C(O)CC(CCc4ccc(C(C)(C)C#N)c(Cl)c4)(C4CCCC4)OC3=O)nc2n1 (stereo not drawn) [A(146), 2-(2-Chloro-4-{2-[2-cyclopentyl-5-(5,7-dimethyl-[1,2,4]triazolo[1,5-a]pyrimidin-2-ylmethyl)-4-hydroxy-6-oxo-3,6-dihydro-2H-pyran-2-yl]-ethyl}-phenyl)-2-methyl-propionitrile] | 2 nM
CC(C)(C#N)c1ccc(CCC2(C3CCCC3)CC(=O)CC(=O)O2)cc1Cl (stereo not drawn) [A(147), 2-{2-Chloro-4-[2-(2-cyclopentyl-4,6-dioxo-tetrahydro-pyran-2-yl)-ethyl]-phenyl}-2-methyl-propionitrile] | 1400 nM
Cc1cc(C)n2nc(CC3=C(O)CC(CCc4ccc(C5(C#N)CC5)c(Cl)c4)(C4CCCC4)OC3=O)nc2n1 (stereo not drawn) [A(148), 1-(2-Chloro-4-{2-[2-cyclopentyl-5-(5,7-dimethyl-[1,2,4]triazolo[1,5-a]pyrimidin-2-ylmethyl)-4-hydroxy-6-oxo-3,6-dihydro-2H-pyran-2-yl]-ethyl}-phenyl)-cyclopropanecarbonitrile] | 5 nM
N#CC1(c2ccc(CCC3(C4CCCC4)CC(=O)CC(=O)O3)cc2Cl)CC1 (stereo not drawn) [A(149), 1-{2-Chloro-4-[2-(2-cyclopentyl-4,6-dioxo-tetrahydro-pyran-2-yl)-ethyl]-phenyl}-cyclopropanecarbonitrile] | 3900 nM
CCc1cc(CCC2(C3CCCC3)CC(O)=C(Cc3nc4nc(C)cc(C)n4n3)C(=O)O2)c(OC)cc1O (stereo not drawn) [A(150), 6-Cyclopentyl-3-(5,7-dimethyl-[1,2,4]triazolo[1,5-a]pyrimidin-2-ylmethyl)-6-[2-(5-ethyl-4-hydroxy-2-methoxy-phenyl)-ethyl]-4-hydroxy-5,6-dihydro-pyran-2-one] | 7 nM
CCc1cc(CCC2(C3CCCC3)CC(=O)CC(=O)O2)c(OC)cc1O (stereo not drawn) [A(151), 6-Cyclopentyl-6-[2-(5-ethyl-4-hydroxy-2-methoxy-phenyl)-ethyl]-dihydro-pyran-2,4-dione] | 300 nM
CCc1cc(CCC2(C3CCCC3)CC(O)=C(Cc3nc[nH]c3C)C(=O)O2)c(OC)cc1O (stereo not drawn) [A(156), 6-Cyclopentyl-6-[2-(5-ethyl-4-hydroxy-2-methoxy-phenyl)-ethyl]-4-hydroxy-3-(5-methyl-1H-imidazol-4-ylmethyl)-5,6-dihydro-pyran-2-one] | 21 nM
CCc1nc(CC2=C(O)CC(CCc3cc(CC)c(O)cc3OC)(C3CCCC3)OC2=O)c(C)[nH]1 (stereo not drawn) [A(157), 6-Cyclopentyl-6-[2-(5-ethyl-4-hydroxy-2-methoxy-phenyl)-ethyl]-3-(2-ethyl-5-methyl-1H-imidazol-4-ylmethyl)-4-hydroxy-5,6-dihydro-pyran-2-one] | 65 nM
CCc1cc(CCC2(C3CCCC3)CC(O)=C(Cc3nc4ncc(Cl)cn4n3)C(=O)O2)c(C)cc1O (stereo not drawn) [A(160), 3-(6-Chloro-[1,2,4]triazolo[1,5-a]pyrimidin-2-ylmethyl)-6-cyclopentyl-6-[2-(5-ethyl-4-hydroxy-2-methyl-phenyl)-ethyl]-4-hydroxy-5,6-dihydro-pyran-2-one] | 29 nM
CCc1cc(CCC2(C3CCCC3)CC(O)=C(Cc3nc4ncc(Cl)cn4n3)C(=O)O2)c(F)cc1O (stereo not drawn) [A(161), 3-(6-Chloro-[1,2,4]triazolo[1,5-a]pyrimidin-2-ylmethyl)-6-cyclopentyl-6-[2-(5-ethyl-2-fluoro-4-hydroxy-phenyl)-ethyl]-4-hydroxy-5,6-dihydro-pyran-2-one] | 8 nM
CCc1cc(CCC2(C3CCCC3)CC(O)=C(Cc3nc4nc(C)cc(C)n4n3)C(=O)O2)ccn1 (stereo not drawn) [A(162), 6-Cyclopentyl-3-(5,7-dimethyl-[1,2,4]triazolo[1,5-a]pyrimidin-2-ylmethyl)-6-[2-(2-ethyl-pyridin-4-yl)-ethyl]-4-hydroxy-5,6-dihydro-pyran-2-one] | 10 nM
CCc1cc(CCC2(C3CCCC3)CC(=O)CC(=O)O2)ccn1 (stereo not drawn) [A(163), 6-Cyclopentyl-6-[2-(2-ethyl-pyridin-4-yl)-ethyl]-dihydro-pyran-2,4-dione] | 1900 nM
CCc1cc(CCC2(C3CCCC3)CC(O)=C(Cc3nc4ncc(Cl)cn4n3)C(=O)O2)ccn1 (stereo not drawn) [A(164), 3-(6-Chloro-[1,2,4]triazolo[1,5-a]pyrimidin-2-ylmethyl)-6-cyclopentyl-6-[2-(2-ethyl-pyridin-4-yl)-ethyl]-4-hydroxy-5,6-dihydro-pyran-2-one] | 42 nM
CCc1ccc(O)c(CCC2(C3CCCC3)CC(O)=C(Cc3nc4nc(C)cc(C)n4n3)C(=O)O2)c1 (stereo not drawn) [A(166), 6-Cyclopentyl-3-(5,7-dimethyl-[1,2,4]triazolo[1,5-a]pyrimidin-2-ylmethyl)-6-[2-(5-ethyl-2-hydroxy-phenyl)-ethyl]-4-hydroxy-5,6-dihydro-pyran-2-one] | 1 nM
CCc1ccc(O)c(CCC2(C3CCCC3)CC(=O)CC(=O)O2)c1 (stereo not drawn) [A(169), 6-Cyclopentyl-6-[2-(5-ethyl-2-hydroxy-phenyl)-ethyl]-dihydro-pyran-2,4-dione] | 400 nM
CCc1ccc(O)c(CCC2(C3CCCC3)CC(O)=C(Cc3nc4ncc(Cl)cn4n3)C(=O)O2)c1 (stereo not drawn) [A(170), 3-(6-Chloro-[1,2,4]triazolo[1,5-a]pyrimidin-2-ylmethyl)-6-cyclopentyl-6-[2-(5-ethyl-2-hydroxy-phenyl)-ethyl]-4-hydroxy-5,6-dihydro-pyran-2-one] | 10 nM
CCc1ccc(O)c(CCC2(C3CCCC3)CC(O)=C(Cc3nc4ncc(C)cn4n3)C(=O)O2)c1 (stereo not drawn) [A(173), 6-Cyclopentyl-6-[2-(5-ethyl-2-hydroxy-phenyl)-ethyl]-4-hydroxy-3-(6-methyl-[1,2,4]triazolo[1,5-a]pyrimidin-2-ylmethyl)-5,6-dihydro-pyran-2-one] | 4 nM
CCc1ccc(O)c(CCC2(C3CCCC3)CC(O)=C(Cc3nc4ncccn4n3)C(=O)O2)c1 (stereo not drawn) [A(176), 6-Cyclopentyl-6-[2-(5-ethyl-2-hydroxy-phenyl)-ethyl]-4-hydroxy-3-[1,2,4]triazolo[1,5-a]pyrimidin-2-ylmethyl-5,6-dihydro-pyran-2-one] | 6 nM
CCc1ccc(OCCOC)c(CCC2(C3CCCC3)CC(O)=C(Cc3nc4nc(C)cc(C)n4n3)C(=O)O2)c1 (stereo not drawn) [A(177), 6-Cyclopentyl-3-(5,7-dimethyl-[1,2,4]triazolo[1,5-a]pyrimidin-2-ylmethyl)-6-{2-[5-ethyl-2-(2-methoxy-ethoxy)-phenyl]-ethyl}-4-hydroxy-5,6-dihydro-pyran-2-one] | 14 nM
CCc1ccc(OCCOC)c(CCC2(C3CCCC3)CC(=O)CC(=O)O2)c1 (stereo not drawn) [A(178), 6-Cyclopentyl-6-{2-[5-ethyl-2-(2-methoxy-ethoxy)-phenyl]-ethyl}-dihydro-pyran-2,4-dione] | 1300 nM
CCc1ccc(OCCOC)c(CCC2(C3CCCC3)CC(O)=C(Cc3nc4ncc(C)cn4n3)C(=O)O2)c1 (stereo not drawn) [A(179), 6-Cyclopentyl-6-{2-[5-ethyl-2-(2-methoxy-ethoxy)-phenyl]-ethyl}-4-hydroxy-3-(6-methyl-[1,2,4]triazolo[1,5-a]pyrimidin-2-ylmethyl)-5,6-dihydro-pyran-2-one] | 5 nM
CCc1cc(CCC2(C3CCCC3)CC(O)=C(Cc3nc4nc(C)cc(C)n4n3)C(=O)O2)c2c(c1O)CCO2 (stereo not drawn) [A(180), 6-Cyclopentyl-3-(5,7-dimethyl-[1,2,4]triazolo[1,5-a]pyrimidin-2-ylmethyl)-6-[2-(5-ethyl-4-hydroxy-2,3-dihydro-benzofuran-7-yl)-ethyl]-4-hydroxy-5,6-dihydro-pyran-2-one] | 10 nM
CCc1cc(CCC2(C3CCCC3)CC(=O)CC(=O)O2)c2c(c1O)CCO2 (stereo not drawn) [A(181), 6-Cyclopentyl-6-[2-(5-ethyl-4-hydroxy-2,3-dihydro-benzofuran-7-yl)-ethyl]-dihydro-pyran-2,4-dione] | 600 nM
CCc1cc(CCC2(C3CCCC3)CC(O)=C(Cc3nc4ncc(C)cn4n3)C(=O)O2)c2c(c1O)CCO2 (stereo not drawn) [A(182), 6-Cyclopentyl-6-[2-(5-ethyl-4-hydroxy-2,3-dihydro-benzofuran-7-yl)-ethyl]-4-hydroxy-3-(6-methyl-[1,2,4]triazolo[1,5-a]pyrimidin-2-ylmethyl)-5,6-dihydro-pyran-2-one] | 4 nM
CCc1cc(CCC2(C3CCCC3)CC(O)=C(Cc3nc4nc(C)cc(C)n4n3)C(=O)O2)ccc1OCCOC (stereo not drawn) [A(183), 6-Cyclopentyl-3-(5,7-dimethyl-[1,2,4]triazolo[1,5-a]pyrimidin-2-ylmethyl)-6-{2-[3-ethyl-4-(2-methoxy-ethoxy)-phenyl]-ethyl}-4-hydroxy-5,6-dihydro-pyran-2-one] | 7 nM
